Test results: the Kinase Knowledgebase extract (Sharma et al. 2016)

molecular target: MAPK14 (human) (UniProt Q16539); experiment: Assessment of MAPK14 Kinase Activity by Fluorescence Anisotropy Kinase Binding Assay
Sequence (Q16539 whole entry, looked up): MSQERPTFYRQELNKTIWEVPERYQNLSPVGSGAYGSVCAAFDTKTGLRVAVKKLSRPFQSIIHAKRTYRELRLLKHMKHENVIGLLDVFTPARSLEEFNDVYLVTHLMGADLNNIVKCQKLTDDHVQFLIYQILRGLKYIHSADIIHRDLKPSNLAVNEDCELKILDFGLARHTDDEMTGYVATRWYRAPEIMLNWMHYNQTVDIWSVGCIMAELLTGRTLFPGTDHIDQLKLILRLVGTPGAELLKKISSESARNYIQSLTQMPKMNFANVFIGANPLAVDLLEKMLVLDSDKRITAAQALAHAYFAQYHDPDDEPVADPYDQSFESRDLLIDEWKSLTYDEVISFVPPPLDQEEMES

SMILES | Ki | IC50
O=c1ccc2c(-c3ccccc3)nccc2n1Cc1ccccc1 | 20 nM | 
O=c1ccc2c(-c3ccccc3F)cccc2n1-c1ccc(F)cc1 |  | < 1000 nM
O=c1ccc2c(-c3ccccc3Cl)nc(Br)cc2n1-c1ccccc1Cl | 20 nM | 
COc1cc2c(ccc(=O)n2-c2ccccc2Cl)c(-c2ccccc2Cl)c1Br | 12.6 nM | 
O=c1ccc2c(-c3ccccc3Cl)nc(Cl)cc2n1-c1ccccc1Cl | 20 nM | 
O=c1ccc2c(-c3ccccc3)nccc2[nH]1 |  | < 1000 nM
O=c1ccc2c(-c3ccccc3Cl)cc(NC(CO)CO)cc2n1-c1ccccc1Cl | 20 nM | 
O=c1ccc2c(-c3ccc(F)cc3)cccc2n1-c1ccc(F)cc1 |  | < 1000 nM
O=c1ccc2c(-c3ccc(F)cc3F)cccc2n1-c1ccc(F)cc1 |  | < 1000 nM
O=c1ccc2c(-c3ccc(F)cc3F)ccnc2n1-c1ccc(F)cc1 |  | < 1000 nM
O=c1ccc2c(-c3ccc(F)cc3)ccnc2n1-c1ccc(F)cc1 |  | < 1000 nM
